Results on 52 sequences are retold here after the supplement of paper PMC11208160.
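Also: IS621 bridge recombinase in Escherichia coli cells against a fixed T5 target plasmid.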

The series is described as follows: recombinant UMI read abundance after kanamycin selection (control-corrected) (log10(CPM+1)); higher = more efficient recombination; extreme values may be limits of the assay; sequences stand for … in AGTGCAGAGAAAATCGGCCAGTTTTCTCTGCCTGCAGTCCGCATGCCGTGGGACCCCTTGGGTTCTAACCTGTTGCCTAGATTTATGCAGCGGACTGCCTTTCTCCCAAAGTGATAAACCGG…AGGTTGGTTTCACT; site = the 11-nt donor. A digest of the protocol: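 After plating on IPTG (0.07 mM) plus kanamycin, or unselected, in two replicates, recombinant UMIs were PCR-amplified across the donor–target junction and sequenced. The cells were Escherichia coli co-electroporated with a UMI-tagged donor and donor-binding-loop pair library and a target plasmid with a fixed target and T7-inducible IS621 bridge recombinase. Values are log10(CPM+1), with CPM averaged over replicates and scaled by control-derived factors.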
Consider “TAATCAGCATGGACCGGTTTTCCCGGTAATCCGTATTTGTC (site TAATCAGCTGA)”, for which the “recombinant UMI read abundance (log10)” value is 1.93.
On to “TAATGAGCATGGACCGGTTTTCCCGGTAATCCGTATTTGAG (site TAATGAGCTCA)”, for which the “recombinant UMI read abundance (log10)” value is 0.196.
As for “TAATGAGCATGGACCGGTTTTCCCGGTAATCCGTATTTGAG (site TAATGAGCTCC)”, the “recombinant UMI read abundance (log10)” value was determined as 0.104.
“TAATGAGCATGGACCGGTTTTCCCGGTAATCCGTATTTGAG (site TAATGAGCTCG)”: the “recombinant UMI read abundance (log10)” value stood at 0.341.
With “TAATGAGCATGGACCGGTTTTCCCGGTAATCCGTATTTGAG (site TAATGAGCTCT)”, the “recombinant UMI read abundance (log10)” value turned out to be 1.33.
Regarding “TAATGAGCATGGACCGGTTTTCCCGGTAATCCGTATTTGCG (site TAATGAGCTCA)”, the “recombinant UMI read abundance (log10)” value was determined as 0.385.
As to “TAATGAGCATGGACCGGTTTTCCCGGTAATCCGTATTTGCG (site TAATGAGCTCC)”, the “recombinant UMI read abundance (log10)” value was determined as 0.00423.
Take “TAATGAGCATGGACCGGTTTTCCCGGTAATCCGTATTTGCG (site TAATGAGCTCG)”: the “recombinant UMI read abundance (log10)” value turned out to be 1.58.
For the sequence “TAATGAGCATGGACCGGTTTTCCCGGTAATCCGTATTTGCG (site TAATGAGCTCT)”, the “recombinant UMI read abundance (log10)” value was found to be 0.626.
In the case of “TAATGAGCATGGACCGGTTTTCCCGGTAATCCGTATTTGGG (site AAATGAGCTCC)”, the “recombinant UMI read abundance (log10)” value came out at 0.117.
“TAATGAGCATGGACCGGTTTTCCCGGTAATCCGTATTTGGG (site CAATGAGCTCC)”: the “recombinant UMI read abundance (log10)” value was 0.0721.
On to “TAATGAGCATGGACCGGTTTTCCCGGTAATCCGTATTTGGG (site GAATGAGCTCC)”, for which the “recombinant UMI read abundance (log10)” value was determined as 0.00249.
As for “TAATGAGCATGGACCGGTTTTCCCGGTAATCCGTATTTGGG (site TAAAGAGCTCC)”, the “recombinant UMI read abundance (log10)” value amounted to 0.00438.
Consider “TAATGAGCATGGACCGGTTTTCCCGGTAATCCGTATTTGGG (site TAACGAGCTCC)”, for which the “recombinant UMI read abundance (log10)” value worked out at 0.0128.
Take “TAATGAGCATGGACCGGTTTTCCCGGTAATCCGTATTTGGG (site TAAGGAGCTCC)”: the “recombinant UMI read abundance (log10)” value was 0.0167.
In the case of “TAATGAGCATGGACCGGTTTTCCCGGTAATCCGTATTTGGG (site TAATAAGCTCC)”, the “recombinant UMI read abundance (log10)” value came out at 0.0171.
Regarding “TAATGAGCATGGACCGGTTTTCCCGGTAATCCGTATTTGGG (site TAATCAGCTCC)”, the “recombinant UMI read abundance (log10)” value stood at 0.0102.
Then “TAATGAGCATGGACCGGTTTTCCCGGTAATCCGTATTTGGG (site TAATGAACTCC)”, with 0.0101.
As for “TAATGAGCATGGACCGGTTTTCCCGGTAATCCGTATTTGGG (site TAATGACCTCC)”, the figure is 0.00784; as for “TAATGAGCATGGACCGGTTTTCCCGGTAATCCGTATTTGGG (site TAATGAGCTAC)”, 0.0203.
Take “TAATGAGCATGGACCGGTTTTCCCGGTAATCCGTATTTGGG (site TAATGAGCTCA)”: the “recombinant UMI read abundance (log10)” value turned out to be 0.00405.
Then “TAATGAGCATGGACCGGTTTTCCCGGTAATCCGTATTTGGG (site TAATGAGCTCC)”, with 0.304; and “TAATGAGCATGGACCGGTTTTCCCGGTAATCCGTATTTGGG (site TAATGAGCTCG)”, with 0.0101; and “TAATGAGCATGGACCGGTTTTCCCGGTAATCCGTATTTGGG (site TAATGAGCTCT)”, with 0.0248.
As for “TAATGAGCATGGACCGGTTTTCCCGGTAATCCGTATTTGGG (site TAATGAGCTGC)”, the figure is 0; as for “TAATGAGCATGGACCGGTTTTCCCGGTAATCCGTATTTGGG (site TAATGAGCTTC)”, 0.0139.
In the case of “TAATGAGCATGGACCGGTTTTCCCGGTAATCCGTATTTGGG (site TAATGATCTCC)”, the “recombinant UMI read abundance (log10)” value was found to be 0.
Take “TAATGAGCATGGACCGGTTTTCCCGGTAATCCGTATTTGGG (site TAATGCGCTCC)”: the “recombinant UMI read abundance (log10)” value came out at 0.00982.
For the sequence “TAATGAGCATGGACCGGTTTTCCCGGTAATCCGTATTTGGG (site TAATGGGCTCC)”, the “recombinant UMI read abundance (log10)” value turned out to be 0.0142.
As to “TAATGAGCATGGACCGGTTTTCCCGGTAATCCGTATTTGGG (site TAATGTGCTCC)”, the “recombinant UMI read abundance (log10)” value amounted to 0.
Consider “TAATGAGCATGGACCGGTTTTCCCGGTAATCCGTATTTGGG (site TAATTAGCTCC)”, for which the “recombinant UMI read abundance (log10)” value worked out at 0.00449.
Then “TAATGAGCATGGACCGGTTTTCCCGGTAATCCGTATTTGGG (site TACTGAGCTCC)”, with 0.00582; and “TAATGAGCATGGACCGGTTTTCCCGGTAATCCGTATTTGGG (site TAGTGAGCTCC)”, with 0.0336; and “TAATGAGCATGGACCGGTTTTCCCGGTAATCCGTATTTGGG (site TATTGAGCTCC)”, with 0.0136.
Then “TAATGAGCATGGACCGGTTTTCCCGGTAATCCGTATTTGGG (site TCATGAGCTCC)”, with 0.203.
Consider “TAATGAGCATGGACCGGTTTTCCCGGTAATCCGTATTTGGG (site TGATGAGCTCC)”, for which the “recombinant UMI read abundance (log10)” value was 0.00873.
Turning to “TAATGAGCATGGACCGGTTTTCCCGGTAATCCGTATTTGGG (site TTATGAGCTCC)”, the “recombinant UMI read abundance (log10)” value was 0.0156.
In the case of “TAATGCTCATGGACCGGTTTTCCCGGTAATCCGTATTTGAA (site AAATGCTCTTT)”, the “recombinant UMI read abundance (log10)” value worked out at 0.111.
Consider “TAATGCTCATGGACCGGTTTTCCCGGTAATCCGTATTTGAA (site CAATGCTCTTT)”, for which the “recombinant UMI read abundance (log10)” value came out at 0.61.
For the sequence “TAATGCTCATGGACCGGTTTTCCCGGTAATCCGTATTTGAA (site GAATGCTCTTT)”, the “recombinant UMI read abundance (log10)” value turned out to be 0.106.
Then “TAATGCTCATGGACCGGTTTTCCCGGTAATCCGTATTTGAA (site TAATGCTCTTT)”, with 1.19; and “TAATGTCCATGGACCGGTTTTCCCGGTAATCCGTATTTGTA (site TAAAGTCCTTA)”, with 0.459; and “TAATGTCCATGGACCGGTTTTCCCGGTAATCCGTATTTGTA (site TAACGTCCTTA)”, with 0.254.
In the case of “TAATGTCCATGGACCGGTTTTCCCGGTAATCCGTATTTGTA (site TAAGGTCCTTA)”, the “recombinant UMI read abundance (log10)” value amounted to 0.586.
Then “TAATGTCCATGGACCGGTTTTCCCGGTAATCCGTATTTGTA (site TAATGTCCTTA)”, with 0.766; and “TAATTAGCATGGACCGGTTTTCCCGGTAATCCGTATTTGGG (site TAATAAGCTCC)”, with 0.00264.
On to “TAATTAGCATGGACCGGTTTTCCCGGTAATCCGTATTTGGG (site TAATCAGCTCC)”, for which the “recombinant UMI read abundance (log10)” value is 0.0055.
Consider “TAATTAGCATGGACCGGTTTTCCCGGTAATCCGTATTTGGG (site TAATGAGCTCC)”, for which the “recombinant UMI read abundance (log10)” value was 0.0311.
On to “TAATTAGCATGGACCGGTTTTCCCGGTAATCCGTATTTGGG (site TAATTAGCTCC)”, for which the “recombinant UMI read abundance (log10)” value was 0.0073.
As to “TAATTCACATGGACCGGTTTTCCCGGTAATCCGTATTTGGG (site TAATTCACTCC)”, the “recombinant UMI read abundance (log10)” value was determined as 0.0061.
In the case of “TAATTGGCATGGACCGGTTTTCCCGGTAATCCGTATTTGTG (site TAATTGGCTCA)”, the “recombinant UMI read abundance (log10)” value was determined as 0.484.
Regarding “TAATTGGCATGGACCGGTTTTCCCGGTAATCCGTATTTGTG (site TACTTGGCTCA)”, the “recombinant UMI read abundance (log10)” value was 0.0115.
